Legend:
[1] = biological target: human α2β3γ2 GABAARs (benzodiazepine site) (Homo sapiens (Human), UniProt P18507+P47869); test: In vitro radioligand binding assay ([3H]Ro15-1788 displacement), α2-GABAAR Ki
In short: (§1)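 Membranes from dexamethasone-induced mouse L(tk−) cells stably expressing the human receptor were incubated 1 h at 4° C with 4 nM [3H]Ro15-1788 and graded compound; nonspecific binding with 1-3 μM TP003. Filter-bound radioactivity counted; Ki from IC50 by Cheng-Prusoff using the measured radioligand Kd.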

[2] = biological target: human α3β3γ2 GABAARs (benzodiazepine site) (Homo sapiens (Human), UniProt P18507+P34903); test: In vitro radioligand binding assay ([3H]Ro15-1788 displacement), α3-GABAAR Ki; conditions: L(tk-) cell membranes, 4 nM [3H]Ro15-1788
In short: as §1

human α2β3γ2 GABAARs = test: In vitro electrophysiological recording assay (automated patch-clamp), α2-GABAAR relative efficacy; format: cell-based; conditions: % efficacy normalised to diazepam; GABA EC10-20; concentration generally >= 100 times Ki
In short: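 Automated whole-cell patch clamp at 20-22° C on L(tk^−) cells (QPatch, −65 mV) or HEK293 cells (SyncroPatch, −80 mV) stably expressing the human receptor. Compound pre-applied ≥1 min, then co-applied with GABA EC10-20; % potentiation of leak-corrected peak current, normalised to diazepam, typically at ≥100× Ki.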

human α3β3γ2 GABAARs = test: In vitro electrophysiological recording assay (automated patch-clamp), α3-GABAAR relative efficacy; format: cell-based; conditions: % efficacy normalised to diazepam; GABA EC10-20; concentration generally >= 100 times Ki
Method: The efficacy of modulators was evaluated using the automated patch-clamp platforms QPatch16 (Sophion, Copenhagen, Denmark) or SyncroPatch 384PE (Nanion, Germany).
For QPatch electrophysiology testing L(tk^−) cells stably expressing human α1β3γ2, α2β3γ2, α3β3γ2, α5β3γ2 GABAARs were used. HEK293 cells stably expressing human α1β3γ2L, α2β3γ2L, α3β3γ2L and α5β3γ2L GABAARs were used for the SyncroPatch 384PE experiments.
All experiments were carried out at room temperature (20-22° C.) using a standard whole cell procedure and physiological solutions. Gigaseals were formed upon execution of a combined suction/voltage protocol with subsequent increased suction leading to the whole-cell configuration.
The currents recorded were acquired at either 1 KHz or 2 KHz and filtered using a Bessel filter. Whole-cell currents were measured at a holding potential of-65 mV (QPatch) or −80 mV (SyncroPatch).
For QPatch experiments, the extracellular solution contained of: 145 mM NaCl, 4 mM KCl, 1 mM MgCl2, 2 mM CaCl2), 10 mM HEPES, 10 mM D-glucose (pH 7.4), and the intracellular solution consisted of: 96 mM KCl, 28 mM CsCl, 25 mM KOH, 4.3 mM CaCl2), 1.4 mM MgCl2, 10 mM EGTA, 10 mM HEPES, 3 mM MgATP (pH 7.2). The osmolarities of the extracellular and intracellular solutions were 305 and 295 mOsm respectively.
For SyncroPatch experiments, the extracellular recording solution contained: 140 mM NaCl, 4 mM KCl, 2 mM CaCl2), 1 mM MgCl2, 10 mM HEPES, 5 mM glucose (pH 7.4 with NaOH and osmolarity of c. 300-310 mOsm). The intracellular recording solution consisted of: 90 mM KCl, 50 mM KF, 1.5 mM MgCl2, 11.1 mM EGTA and 10 mM HEPES (pH 7.2 with KOH and osmolarity of c. 300 mOsm). 2 mM of NaATP was added to the intracellular solution on the day of testing.
The effects of modulators were evaluated in the presence of a submaximal GABA concentration, giving typically less than 30% activation of the response elicited by a saturating GABA concentration. To check and ensure baseline current stability before compound addition, two to five consecutive applications of GABA EC10-20 separated by wash steps were performed before compound addition. The test compound was applied 1 min at least prior to co-application with GABA EC10-20. Following a further wash step, a saturating concentration of GABA was applied at the end of each recording, allowing the accurate evaluation for each cell of the percentage baseline activation elicited by the submaximal GABA applied.
The compounds were first dissolved in DMSO as a 10 mM stock and then further diluted to the testing concentrations so that the final DMSO concentration in the extracellular recording solution was 0.1% (QPatch) or 0.2% (SyncroPatch).
The % efficacy of modulators was determined from the GABA elicited currents recorded in the presence and absence of the test compound, using the formula:
[((compound peak current−leak)−(GABA peak current-leak))/(GABA peak current−leak)]*100,
where ‘leak’ is the leak baseline current at the holding potential, ‘compound peak current’ is the current elicited by co-application of compound and GABA, and ‘GABA peak current’ is the current elicited by GABA alone at the last GABA application before compound addition. The results were presented as ‘relative efficacy’ for each compound generally at a concentration equal or higher than 100 times their determined Ki. The relative efficacy of a compound was calculated by normalising its % efficacy to the corresponding % efficacy of diazepam that was separately determined.

Sequence of human α2β3γ2 GABAARs (benzodiazepine site) (P47869 29-451): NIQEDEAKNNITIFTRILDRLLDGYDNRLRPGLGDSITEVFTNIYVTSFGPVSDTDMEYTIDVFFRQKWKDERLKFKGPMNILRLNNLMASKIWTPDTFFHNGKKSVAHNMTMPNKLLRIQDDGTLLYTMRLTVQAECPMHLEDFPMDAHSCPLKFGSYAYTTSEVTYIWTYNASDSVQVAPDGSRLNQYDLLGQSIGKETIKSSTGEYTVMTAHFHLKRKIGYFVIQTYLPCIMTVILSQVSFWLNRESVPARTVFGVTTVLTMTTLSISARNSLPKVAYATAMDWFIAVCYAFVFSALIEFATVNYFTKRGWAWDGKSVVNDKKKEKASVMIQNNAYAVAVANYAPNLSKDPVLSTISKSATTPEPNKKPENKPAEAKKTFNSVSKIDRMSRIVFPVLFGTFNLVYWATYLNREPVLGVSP
Sequence of human α2β3γ2 GABAARs (benzodiazepine site) (P28472 26-473 partner): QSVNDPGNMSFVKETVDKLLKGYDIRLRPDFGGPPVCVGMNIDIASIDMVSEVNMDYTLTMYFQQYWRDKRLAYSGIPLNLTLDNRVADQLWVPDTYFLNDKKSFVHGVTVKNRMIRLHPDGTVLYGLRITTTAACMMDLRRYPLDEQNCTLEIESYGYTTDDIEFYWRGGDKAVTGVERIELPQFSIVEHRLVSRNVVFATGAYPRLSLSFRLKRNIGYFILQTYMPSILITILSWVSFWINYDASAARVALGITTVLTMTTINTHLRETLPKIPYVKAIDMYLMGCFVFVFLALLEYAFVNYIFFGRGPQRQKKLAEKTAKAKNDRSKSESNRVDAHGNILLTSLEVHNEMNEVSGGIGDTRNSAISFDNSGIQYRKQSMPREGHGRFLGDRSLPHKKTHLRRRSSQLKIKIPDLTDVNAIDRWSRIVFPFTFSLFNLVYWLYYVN
Sequence of human α2β3γ2 GABAARs (benzodiazepine site) (P18507 40-475): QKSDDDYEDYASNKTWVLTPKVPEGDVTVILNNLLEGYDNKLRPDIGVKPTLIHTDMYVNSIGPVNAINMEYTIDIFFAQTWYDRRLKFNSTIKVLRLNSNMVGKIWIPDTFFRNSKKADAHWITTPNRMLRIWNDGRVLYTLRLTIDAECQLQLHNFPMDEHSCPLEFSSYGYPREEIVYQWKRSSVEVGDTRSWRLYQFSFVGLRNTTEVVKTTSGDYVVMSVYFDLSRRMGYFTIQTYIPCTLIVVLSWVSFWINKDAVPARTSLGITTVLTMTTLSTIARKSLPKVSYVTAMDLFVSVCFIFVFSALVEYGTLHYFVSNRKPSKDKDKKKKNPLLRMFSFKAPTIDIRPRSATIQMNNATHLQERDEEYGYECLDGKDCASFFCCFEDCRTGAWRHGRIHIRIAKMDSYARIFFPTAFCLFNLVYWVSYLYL

SMILES	Ki [1]	Ki [2]	α2-GABAAR Relative Efficacy (vs. Diazepam) (human α2β3γ2 GABAARs)	α3-GABAAR Relative Efficacy (vs. Diazepam) (human α3β3γ2 GABAARs)
CCCNC(=O)c1c(N)c2cccc(-c3cnccc3OC)c2[nH]c1=O [Example 17, 4-Amino-8-(4-methoxy-3-pyridyl)-2-oxo-N-propyl-1H-quinoline-3-carboxamide]	1.64 nM	8.74 nM	0.33	0.42
CCCNC(=O)c1c(N)c2cccc(-c3cnc(C)cc3OC)c2[nH]c1=O [Example 18, 4-Amino-8-(4-methoxy-6-methyl-3-pyridyl)-2-oxo-N-propyl-1H-quinoline-3-carboxamide]	9.77 nM	27.9 nM	0.29	0.21
CCCNC(=O)c1c(N)c2cccc(-c3nc(C)ncc3F)c2[nH]c1=O [Example 40, 4-Amino-8-(5-fluoro-2-methyl-pyrimidin-4-yl)-2-oxo-N-propyl-1H-quinoline-3-carboxamide]	1.19 nM	5.06 nM	0.29	0.31

From patent US20250197368A1 (priority 2020, published 2025)
